Reference: patent US8420574B2, “Plant growth enhancement with combinations of PESA and herbicides” (Valent BioSciences Corporation, priority 2009, dated 2013)

Assays:
rice cv. Cheniere [1] = assay: Pouch assay, PESA salt and herbicide added to the pouch solution; root and shoot length; assay type: in vivo; details: for Shoot Length / Root Length: 0 ppm PESA salt; for Shoot Length: untreated 3.2; for Root Length: untreated 9.2
Description: Alternatively, PESA salt and herbicides may be added separately to the sterile water in the growth pouch.
(§1) Seeds were placed in germination pouches consisting of germination paper hydrated with sterile water that was an insert in a gas-permeable 16×14 cm plastic pouch (CYG Pouch; Mega International, St. Paul, Minn.). In these examples, in pouch solution evaluation, PESA sodium salt or other active ingredients were added to the sterile water in the pouch. The pouches were arranged in a completely randomized block design in growth racks and placed in 19-liter polycarbonate food storage containers (Rubbermaid Commercial Products, Winchester, Va.). The sealed containers were held in an upright growth cabinet maintained at 25 C with a 12 hour light: 12 hour dark photoperiod. After 6 days, the containers were removed from the growth cabinet, and the lengths of the roots and shoot were measured.

rice cv. Cheniere [2] = assay: Pouch assay with PESA salt seed treatment; root length; assay type: in vivo; details: 0 g PESA salt/100 lbs of seed, untreated 9.8
Description: Procedure for Treating Samples of Seed in the Laboratory
Seed was sieved with a screen of mesh size appropriate to remove broken seeds and small trash. Cracked or otherwise damaged seeds were removed. The seed was well mixed, and 50 g samples were weighed into small plastic trays. Seed treatment slurries were made by adding measured amounts of PESA or its salts and other AIs to sufficient water to bring them up to a standard volume, typically 2 ml. A fungicide (Maxim XL; Syngenta Agricultural Products, Greensboro, N.C.), a polymeric binder (CF-Clear; Becker-Underwood, Ames, Iowa), and a colorant (Color Coat Red; Becker-Underwood, Ames, Iowa) were also included in the slurry at label rates. A small aliquot of this slurry was applied to the seed using the Hege 11 coater (Wintersteiger, Salt Lake City, Utah) with a six-inch bowl at a slurry rate of 30 ounces per 100 lbs of seed. The slurry was deposited drop-wise on the spinning disk atomizer using a syringe.
After treatment, each seed sample was placed in plastic trays and dried at a room temperature for 20 to 60 minutes. The samples were then placed in small plastic bags. Samples were spot-checked using a water activity meter to make sure the water activity is below 0.7.
as §1
Rice cv. Chemere was treated with PESA sodium salt prior to growing in the pouch. The treated seeds were then grown in the pouch in a dose-dependent series of trifluralin concentrations (Table 2). […] This confirms that seed treatment with the PESA salt protects or safens rice from the negative effects of trifluralin herbicide on root growth.

With `CCCN(CCC)c1c([N+](=O)[O-])cc(C(F)(F)F)cc1[N+](=O)[O-]` [Trifluralin, trifluralin, reference compound] the “Shoot Length” value (rice cv. Cheniere [1]; 1 ppm trifluralin) was 3.7 cm, the “Root Length” value (rice cv. Cheniere [1]; 1 ppm trifluralin) was 9.8 cm and the “Shoot Length” value (rice cv. Cheniere [1]; 10 ppm trifluralin) was 3.3 cm. The “Root Length” value (rice cv. Cheniere [1]; 10 ppm trifluralin) was 8.3 cm, the “root length reduced by” value (rice cv. Cheniere [1]; 100 ppm trifluralin) was 90% and the “Shoot Length” value (rice cv. Cheniere [1]; 100 ppm trifluralin) was 2.2 cm. The “Root Length” value (rice cv. Cheniere [1]; 100 ppm trifluralin) was 0.9 cm, the “Root Length” value (rice cv. Cheniere [2]; 50 ppm trifluralin) was 0.9 cm and the “Root Length” value (rice cv. Cheniere [2]; 100 ppm trifluralin) was 0.1 cm.
